Assay results as given in ChEMBL document CHEMBL5113443, “Design, synthesis and properties of peptide inhibitors based on BRCA1856-871” (Bioorg Med Chem Lett, 2022).
Where a SMILES comes first, the peptide text is derived from it. The star is where a group is joined. Nicotinoyl(6-CF3) = O=C(c1ccc(C(F)(F)F)nc1)*; X1 = O=C(c1cncc(C(F)(F)F)c1)*; X5 = O=C(c1ccc[n+]([O-])c1)*; Nicotinoyl = O=C(c1cccnc1)*; X2 = O=C(c1cccnc1C(F)(F)F)*; X3 = O=C(c1cccnc1Br)*; X4 = Cc1ccncc1C(=O)*; X6 = O=C(c1cccnc1S)*

Experiments:
[1] = biological target: T1, DNA repair protein RAD51 homolog 1 (Homo sapiens) (UniProt Q06609); experiment: Binding affinity to RAD51 (158 to 180 residues) (unknown origin) assessed as random coil content at 15 uM by circular dichroism spectroscopy (reference value: 39.2%)
T1 sequence (whole entry): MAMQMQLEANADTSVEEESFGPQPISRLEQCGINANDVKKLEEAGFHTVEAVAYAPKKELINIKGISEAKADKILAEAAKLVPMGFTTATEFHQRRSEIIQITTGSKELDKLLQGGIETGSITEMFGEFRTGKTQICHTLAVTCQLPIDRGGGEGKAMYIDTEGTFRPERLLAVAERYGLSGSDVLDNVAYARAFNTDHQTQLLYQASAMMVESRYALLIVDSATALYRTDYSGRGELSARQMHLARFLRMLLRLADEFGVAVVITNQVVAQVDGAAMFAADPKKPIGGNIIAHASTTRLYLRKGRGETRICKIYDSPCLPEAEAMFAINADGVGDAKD

[2] = biological target: T1, DNA repair protein RAD51 homolog 1 (Homo sapiens); experiment: Binding affinity to RAD51 (158 to 180 residues) (unknown origin) assessed as beta-turn content at 15 uM by circular dichroism spectroscopy (reference value: 16.2%)
[3] = biological target: T1, DNA repair protein RAD51 homolog 1 (Homo sapiens); experiment: Binding affinity to RAD51 (158 to 180 residues) (unknown origin) assessed as alpha-helical content at 15 uM by circular dichroism spectroscopy (reference value: 26.9%)
[4] = biological target: T1, DNA repair protein RAD51 homolog 1 (Homo sapiens); experiment: Binding affinity to RAD51 (158 to 180 residues) (unknown origin) assessed as quenching rate constant by fluorescence spectroscopy
[5] = biological target: T1, DNA repair protein RAD51 homolog 1 (Homo sapiens); experiment: Binding affinity to RAD51 (158 to 180 residues) (unknown origin) assessed as beta-sheet content at 15 uM by circular dichroism spectroscopy (reference value: 17.7%)
[6] = biological target: T1, DNA repair protein RAD51 homolog 1 (Homo sapiens); experiment: Binding affinity to RAD51 (158 to 180 residues) (unknown origin) assessed as binding constant by fluorescence spectroscopy
MCF7 = experiment: Cytotoxicity against human MCF7 cells assessed as cell viability at 100 uM relative to control; type: functional; settings: read-out: Activity
HEK293 = experiment: Cytotoxicity against HEK293 cells assessed as reduction in cell viability at 200 uM; type: toxicity, cell-based; settings: human, hek293, 200 µM
[7] = biological target: T1, DNA repair protein RAD51 homolog 1 (Homo sapiens); experiment: Binding affinity to RAD51 (158 to 180 residues) (unknown origin) assessed as reduction in fluorescence intensity by fluorescence spectroscopy; settings: dose 6-30 µM, DDE = dose-dependent effect

| Compound | Activity [1] [%] | Activity [2] [%] | Activity [3] [%] | Kq [4] | Activity [5] [%] | Binding constant [6] | Activity [7] | viability at 100 µM (MCF7) [%] | Activity (HEK293) |
| --- | --- | --- | --- | --- | --- | --- | --- | --- | --- |
| Cc1ccncc1C(=O)N[C@@H](Cc1ccc(O)cc1)C(=O)N[C@@H](CC(C)C)C(=O)N[C@@H](CCC(N)=O)C(=O)N[C@@H](CC(N)=O)C(=O)N[C@H](C(=O)N[C@@H](Cc1ccccc1)C(=O)N[C@@H](CCCCN)C(=O)N[C@H](C(=O)N[C@@H](CO)C(=O)N[C@@H](CCCCN)C(=O)N[C@@H](CCCNC(=N)N)C(=O)N[C@@H](CCC(N)=O)C(=O)N[C@@H](CO)C(=O)N[C@@H](Cc1ccccc1)C(=O)N[C@@H](C)C(=O)N1CCC[C@H]1C(N)=O)C(C)C)[C@@H](C)O (X4-YLQNTFKVSKRQSFAP-NH2) | 32.7 | 18.1 | 37.9 | 1.77 10^12/M | 11.3 | 0.76 10^4/M | – | – | – |
| CC(C)C[C@H](NC(=O)[C@@H](N)Cc1ccc(O)cc1)C(=O)N[C@@H](CCC(N)=O)C(=O)N[C@@H](CC(N)=O)C(=O)N[C@H](C(=O)N[C@@H](Cc1ccccc1)C(=O)N[C@@H](CCCCN)C(=O)N[C@H](C(=O)N[C@@H](CO)C(=O)N[C@@H](CCCCN)C(=O)N[C@@H](CCCNC(=N)N)C(=O)N[C@@H](CCC(N)=O)C(=O)N[C@@H](CO)C(=O)N[C@@H](Cc1ccccc1)C(=O)N[C@@H](C)C(=O)N1CCC[C@H]1C(=O)O)C(C)C)[C@@H](C)O (H-YLQNTFKVSKRQSFAP-OH) | 18 | 26.4 | 37.1 | 1.13 10^12/M | 18.5 | 0.33 10^4/M | Dde | 90.6 | Non-Toxic |
| CC(C)C[C@H](NC(=O)[C@H](Cc1ccc(O)cc1)NC(=O)c1cccnc1)C(=O)N[C@@H](CCC(N)=O)C(=O)N[C@@H](CC(N)=O)C(=O)N[C@H](C(=O)N[C@@H](Cc1ccccc1)C(=O)N[C@@H](CCCCN)C(=O)N[C@H](C(=O)N[C@@H](CO)C(=O)N[C@@H](CCCCN)C(=O)N[C@@H](CCCNC(=N)N)C(=O)N[C@@H](CCC(N)=O)C(=O)N[C@@H](CO)C(=O)N[C@@H](Cc1ccccc1)C(=O)N[C@@H](C)C(=O)N1CCC[C@H]1C(N)=O)C(C)C)[C@@H](C)O (Nicotinoyl-YLQNTFKVSKRQSFAP-NH2) | 22.6 | 20.1 | 43.4 | 0.96 10^12/M | 13.9 | 1.26 10^4/M | – | 80.9 | Non-Toxic |
| CC(C)C[C@H](NC(=O)[C@H](Cc1ccc(O)cc1)NC(=O)c1ccc[n+]([O-])c1)C(=O)N[C@@H](CCC(N)=O)C(=O)N[C@@H](CC(N)=O)C(=O)N[C@H](C(=O)N[C@@H](Cc1ccccc1)C(=O)N[C@@H](CCCCN)C(=O)N[C@H](C(=O)N[C@@H](CO)C(=O)N[C@@H](CCCCN)C(=O)N[C@@H](CCCNC(=N)N)C(=O)N[C@@H](CCC(N)=O)C(=O)N[C@@H](CO)C(=O)N[C@@H](Cc1ccccc1)C(=O)N[C@@H](C)C(=O)N1CCC[C@H]1C(N)=O)C(C)C)[C@@H](C)O (X5-YLQNTFKVSKRQSFAP-NH2) | 32.2 | 14 | 40.6 | 1.34 10^12/M | 13.2 | 0.89 10^4/M | – | – | – |

Further lines, with some results ahead:

| Activity [1] [%] | Activity [2] [%] | Activity [3] [%] | Kq [4] | Activity [5] [%] | Binding constant [6] | Activity [7] | Compound | viability at 100 µM (MCF7) [%] | Activity (HEK293) |
| --- | --- | --- | --- | --- | --- | --- | --- | --- | --- |
| 24.2 | 28.8 | 36.2 | 5.85 10^12/M | 10.8 | 0.72 10^4/M | – | CC(C)C[C@H](NC(=O)[C@H](Cc1ccc(O)cc1)NC(=O)c1cccnc1S)C(=O)N[C@@H](CCC(N)=O)C(=O)N[C@@H](CC(N)=O)C(=O)N[C@H](C(=O)N[C@@H](Cc1ccccc1)C(=O)N[C@@H](CCCCN)C(=O)N[C@H](C(=O)N[C@@H](CO)C(=O)N[C@@H](CCCCN)C(=O)N[C@@H](CCCNC(=N)N)C(=O)N[C@@H](CCC(N)=O)C(=O)N[C@@H](CO)C(=O)N[C@@H](Cc1ccccc1)C(=O)N[C@@H](C)C(=O)N1CCC[C@H]1C(N)=O)C(C)C)[C@@H](C)O (X6-YLQNTFKVSKRQSFAP-NH2) | – | – |
| 23.4 | 16.5 | 46.7 | 1.32 10^12/M | 13.4 | 1.56 10^4/M | – | CC(C)C[C@H](NC(=O)[C@H](Cc1ccc(O)cc1)NC(=O)c1cncc(C(F)(F)F)c1)C(=O)N[C@@H](CCC(N)=O)C(=O)N[C@@H](CC(N)=O)C(=O)N[C@H](C(=O)N[C@@H](Cc1ccccc1)C(=O)N[C@@H](CCCCN)C(=O)N[C@H](C(=O)N[C@@H](CO)C(=O)N[C@@H](CCCCN)C(=O)N[C@@H](CCCNC(=N)N)C(=O)N[C@@H](CCC(N)=O)C(=O)N[C@@H](CO)C(=O)N[C@@H](Cc1ccccc1)C(=O)N[C@@H](C)C(=O)N1CCC[C@H]1C(N)=O)C(C)C)[C@@H](C)O (X1-YLQNTFKVSKRQSFAP-NH2) | 71 | Non-Toxic |
| 10.8 | 11.6 | 51.3 | 0.61 10^12/M | 26.3 | 4.07 10^4/M | – | CC(C)C[C@H](NC(=O)[C@H](Cc1ccc(O)cc1)NC(=O)c1cccnc1C(F)(F)F)C(=O)N[C@@H](CCC(N)=O)C(=O)N[C@@H](CC(N)=O)C(=O)N[C@H](C(=O)N[C@@H](Cc1ccccc1)C(=O)N[C@@H](CCCCN)C(=O)N[C@H](C(=O)N[C@@H](CO)C(=O)N[C@@H](CCCCN)C(=O)N[C@@H](CCCNC(=N)N)C(=O)N[C@@H](CCC(N)=O)C(=O)N[C@@H](CO)C(=O)N[C@@H](Cc1ccccc1)C(=O)N[C@@H](C)C(=O)N1CCC[C@H]1C(N)=O)C(C)C)[C@@H](C)O (X2-YLQNTFKVSKRQSFAP-NH2) | 81.5 | Non-Toxic |
| 22.1 | 18.4 | 48.3 | 1.24 10^12/M | 11.2 | 1.97 10^4/M | – | CC(C)C[C@H](NC(=O)[C@H](Cc1ccc(O)cc1)NC(=O)c1ccc(C(F)(F)F)nc1)C(=O)N[C@@H](CCC(N)=O)C(=O)N[C@@H](CC(N)=O)C(=O)N[C@H](C(=O)N[C@@H](Cc1ccccc1)C(=O)N[C@@H](CCCCN)C(=O)N[C@H](C(=O)N[C@@H](CO)C(=O)N[C@@H](CCCCN)C(=O)N[C@@H](CCCNC(=N)N)C(=O)N[C@@H](CCC(N)=O)C(=O)N[C@@H](CO)C(=O)N[C@@H](Cc1ccccc1)C(=O)N[C@@H](C)C(=O)N1CCC[C@H]1C(N)=O)C(C)C)[C@@H](C)O ({Nicotinoyl(6-CF3)}-YLQNTFKVSKRQSFAP-NH2) | 79.1 | Non-Toxic |
| 27.6 | 21.6 | 37.7 | 1.7 10^12/M | 13.1 | 0.18 10^4/M | – | CC(C)C[C@H](NC(=O)[C@H](Cc1ccc(O)cc1)NC(=O)c1cccnc1Br)C(=O)N[C@@H](CCC(N)=O)C(=O)N[C@@H](CC(N)=O)C(=O)N[C@H](C(=O)N[C@@H](Cc1ccccc1)C(=O)N[C@@H](CCCCN)C(=O)N[C@H](C(=O)N[C@@H](CO)C(=O)N[C@@H](CCCCN)C(=O)N[C@@H](CCCNC(=N)N)C(=O)N[C@@H](CCC(N)=O)C(=O)N[C@@H](CO)C(=O)N[C@@H](Cc1ccccc1)C(=O)N[C@@H](C)C(=O)N1CCC[C@H]1C(N)=O)C(C)C)[C@@H](C)O (X3-YLQNTFKVSKRQSFAP-NH2) | – | – |
